Read-outs that look alike come from different tables or passages of the source.
How the values were obtained:
[1] = target: Muscarinic acetylcholine Receptor M3 (CHRM3) (Homo sapiens, UniProt P20309); assay: cell-based; conditions: 10 μM HU-MCA-13, read-out: Maximal Response
[2] = system: spinal cord motor neurons; assay: Neurite outgrowth in adult rat spinal cord primary cultures; type: cell-based; conditions: 10 μM HU-MCA-13 for 7 days
Experimental: To study the effect of HU-MCA-13 on adult rat spinal cord primary cultures in vitro, a purification procedure was developed that yields highly enriched motor neurons cultures. Spinal cord motor neuron cultures are an important tool for the study of mechanisms involved in motor neuron survival, degeneration and regeneration, motor neuron disorders such as amyotrophic lateral sclerosis or spinal muscular atrophy as well as in spinal cord injury. This bioassay was performed using vehicle (1% DMSO) DMEM negative control and 10 μM HU-MCA-13, tested compound. Briefly, dissected pieces of adult rat spinal cord tissue were maintained in phosphate-buffered saline (PBS) without Ca^2+ and Mg^2+ and pooled together and transferred to an enzymatic dissociation media containing 20 IU/ml papain in Earle's balanced salt solution (Worthington Biochemical, Freehold, N.J.) and incubated for 30 min at 37° C. After enzymatic dissociation, the papain solution was aspirated and the tissue was mechanically triturated with a fire-polished Pasteur pipette in complete media [Neurobasal Medium with B-27 supplement (Gibco, Grand Island, N.Y.), 100 IU/ml penicillin, […], 3.3 μg/ml aphidicolin, 0.5 mM glutamate] containing 2000 IU/ml DNase and 10-mg/ml protease inhibitors. Single-cell suspensions in complete media was plated on pre-coated collagen IV/laminin mixture-coated 96-well plates (Becton-Dickinson, Bedford, Mass.) at a density of 1.0×10^4 cells/well. The spinal cord motor neurons (red arrows) and accessory Schwann cells (orange) were maintained for one day in culture and then exposed to 1% DMSO-DMEM negative control or 10 μM HU-MCA-13 for 7 days. The cultures were photographed, and Image analysis was performed. Neurite outgrowth was measured and quantified as for PC12 cultures, focusing on two parameters: a. SUM-total area covered by neurite outgrowths; b. mean length of a neurite (microns).

[3] = target: T1, Insulin Receptor (tyrosine kinase) (INSR) (Homo sapiens, UniProt P06213); assay: SAFETYscan INSR kinase Binding; conditions: Inhibitor mode, 10 μM HU-MCA-13, read-out: Maximal Response
T1 construct: DiscoverX (KINOMEscan)

[4] = system: dorsal root ganglion (DRG) sensory neurons; assay: Neurite outgrowth in dorsal root ganglion (DRG) explants; type: cell-based, mice
Experimental: To perform these experiments, about 10 dorsal root ganglia (DRGs) were excised under sterile conditions and transferred to 0.25% Type IV collagenase (Sigma-Aldrich-Merck) in Dulbecco's Modified Eagle Medium (DMEM) at 37° C. for 45 min, followed by a 20-min incubation with 0.025% trypsin in DMEM, to digest the associated connective tissue surrounding the neurons. After plating the ganglia onto collagen (50 μg/ml)/laminin mixture (5 μg/ml)-coated tissue culture wells for 24 h, DRG neurons were cultured for additional 1-7 days in fresh Neurobasal A/B27 containing either 50 ng/ml NGF (positive control), blank medium (DMSO 1%) control and HU-MCA-13. The cultures were photographed; thereafter the ganglia were immune-stained for neuronal tubulin and again photographed using a fluorescent microscope. Image analysis was performed by a researcher blinded to the experimental conditions. Neurite outgrowth distance measured in micrometers, was quantified as for PC12 cultures.

[5] = system: PC12 cells; assay: PC12 cell neurotropic assay (neurite outgrowth); type: cell-based, rat; conditions: 10 μM
Experimental: PC12 cells were grown in T-200 flasks in high glucose (4.5 gr/L) DMEM medium supplemented with 7% FCS, 7% horse serum and 1% penicillin and streptomycin. Cells were incubated at 37° C. in a humidified incubator containing 6% CO2. All experiments were carried out in a clean room, according to ISO7 requirements (10,000 particles/m^3).
Tissue culture Falcon plates were coated with 200 μg/ml collagen type 1 and placed under UV light for 30 minutes for sterilization. Thereafter, one ml of PC12 cell suspension (5000 cells/well) was applied in 12 or 24 well plate, respectively. The cultures were grown in the incubator two days before exposure to investigated compound.
This experimental procedure contained two controls. The first consisted of untreated cells (negative control), representing the random effect: “noise signal”—the ability of cells to spontaneously grow neurite outgrowth which in seven days are of a length less than two-fold cell diameter. Also, negative controls consisted of cultures treated with 1% DMSO, solvent used to solubilize all compounds. The positive control consisted of cells treated with 50 ng/ml NGF, indicating maximal neurite outgrowth that can be achieved in this model. The experimental group consisted of PC12 cells treated with synthetic compounds. In each experiment, after two and seven days, six cultures were evaluated for neurotropic effect. These consecutive observations allow measurement of the progress of neurite outgrowth elongation and the percentage of cells with neurites.^31
In order to assess neurotropic effect, the neurite outgrowth length in each culture was quantified. For this purpose, each culture was placed under an inverted microscope and photographed by the attached camera. Each well was photographed at three to five representative areas. After acquiring the photos, they were analyzed by ImageJ, NIH software. The neurite outgrowth was estimated by fractal dimension (Df), a statistical parameter that describes the fractional space (area and length) filled by neurite outgrowth. Df ranged from 0 to 1.20. This method estimates the amount of picsel covered by neurites/cells compared to empty space per square field, and therefore plotting log (number of square boxes) vs. log (size in pixels) relationship generates a linear curve with Df representing the slope of the curve. Every photograph that was taken, was opened in a Photoshop software and a new layer was generated on it. Using a 5-pixel wide digital pencil tool, all the outgrowths were marked and the layer with the markers (outgrowth network) was saved in a 0-255 gray scale as described in FIG. 2. Then, the saved layer was opened by ImageJ NIH software. The software “skeletonized” the layer, measured the length and complexity of every outgrowth in a fractal box count and calculated the fractional dimension parameter (Df).^32
Each experiment was performed in duplicates and repeated three to four times (n=6-8). By using SPSS software, one way ANOVA was performed for the fractional dimension of each compound, in order to evaluate the neurotropic effect. In case of significance, Bonferroni post-hoc analysis was performed. The results were considered significant when p<0.05.

[6] = target: Voltage-gated L-type calcium channel (CAV1.2) (Homo sapiens, UniProt Q13936); assay: in vitro; set-up: dose or concentration left out as unconfirmed
[7] = target: 5-Hydroxytryptamine (Serotonin) Receptor 2B (HTR2B) (Homo sapiens, UniProt P41595); assay: SAFETYscan HTR2B Calcium Flux; type: cell-based; conditions: 10 μM HU-MCA-13, read-out: Maximal Response
Sequence of 5-Hydroxytryptamine (Serotonin) Receptor 2B (HTR2B) (P41595 whole entry): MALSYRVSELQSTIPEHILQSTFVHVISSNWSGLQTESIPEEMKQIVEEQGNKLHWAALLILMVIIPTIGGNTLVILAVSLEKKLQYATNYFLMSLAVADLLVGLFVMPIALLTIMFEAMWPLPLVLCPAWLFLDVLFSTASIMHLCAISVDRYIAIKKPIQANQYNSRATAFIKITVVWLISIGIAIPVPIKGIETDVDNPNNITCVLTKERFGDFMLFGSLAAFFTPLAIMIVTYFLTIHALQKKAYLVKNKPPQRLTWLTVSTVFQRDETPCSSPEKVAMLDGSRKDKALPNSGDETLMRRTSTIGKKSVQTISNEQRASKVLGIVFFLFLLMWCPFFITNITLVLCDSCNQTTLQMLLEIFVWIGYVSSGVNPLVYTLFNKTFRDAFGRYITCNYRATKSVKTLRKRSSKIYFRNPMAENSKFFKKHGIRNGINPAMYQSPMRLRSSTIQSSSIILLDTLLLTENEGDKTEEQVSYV

Sequence of Muscarinic acetylcholine Receptor M3 (CHRM3) (P20309 whole entry): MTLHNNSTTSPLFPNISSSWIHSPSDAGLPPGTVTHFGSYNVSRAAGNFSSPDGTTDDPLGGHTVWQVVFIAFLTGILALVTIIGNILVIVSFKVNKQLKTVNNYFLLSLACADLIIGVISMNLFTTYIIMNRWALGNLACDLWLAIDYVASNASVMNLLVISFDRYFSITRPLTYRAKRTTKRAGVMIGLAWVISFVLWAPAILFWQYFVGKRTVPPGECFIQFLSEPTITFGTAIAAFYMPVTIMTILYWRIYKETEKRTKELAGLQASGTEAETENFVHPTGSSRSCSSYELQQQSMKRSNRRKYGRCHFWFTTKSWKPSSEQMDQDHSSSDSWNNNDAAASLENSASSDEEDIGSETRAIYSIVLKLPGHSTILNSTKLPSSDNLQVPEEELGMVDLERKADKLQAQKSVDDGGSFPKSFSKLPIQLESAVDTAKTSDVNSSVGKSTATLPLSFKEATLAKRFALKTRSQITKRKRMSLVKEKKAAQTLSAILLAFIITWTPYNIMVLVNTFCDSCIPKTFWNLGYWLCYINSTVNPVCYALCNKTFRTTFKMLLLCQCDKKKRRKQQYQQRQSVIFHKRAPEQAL
Sequence of Voltage-gated L-type calcium channel (CAV1.2) (Q13936 whole entry): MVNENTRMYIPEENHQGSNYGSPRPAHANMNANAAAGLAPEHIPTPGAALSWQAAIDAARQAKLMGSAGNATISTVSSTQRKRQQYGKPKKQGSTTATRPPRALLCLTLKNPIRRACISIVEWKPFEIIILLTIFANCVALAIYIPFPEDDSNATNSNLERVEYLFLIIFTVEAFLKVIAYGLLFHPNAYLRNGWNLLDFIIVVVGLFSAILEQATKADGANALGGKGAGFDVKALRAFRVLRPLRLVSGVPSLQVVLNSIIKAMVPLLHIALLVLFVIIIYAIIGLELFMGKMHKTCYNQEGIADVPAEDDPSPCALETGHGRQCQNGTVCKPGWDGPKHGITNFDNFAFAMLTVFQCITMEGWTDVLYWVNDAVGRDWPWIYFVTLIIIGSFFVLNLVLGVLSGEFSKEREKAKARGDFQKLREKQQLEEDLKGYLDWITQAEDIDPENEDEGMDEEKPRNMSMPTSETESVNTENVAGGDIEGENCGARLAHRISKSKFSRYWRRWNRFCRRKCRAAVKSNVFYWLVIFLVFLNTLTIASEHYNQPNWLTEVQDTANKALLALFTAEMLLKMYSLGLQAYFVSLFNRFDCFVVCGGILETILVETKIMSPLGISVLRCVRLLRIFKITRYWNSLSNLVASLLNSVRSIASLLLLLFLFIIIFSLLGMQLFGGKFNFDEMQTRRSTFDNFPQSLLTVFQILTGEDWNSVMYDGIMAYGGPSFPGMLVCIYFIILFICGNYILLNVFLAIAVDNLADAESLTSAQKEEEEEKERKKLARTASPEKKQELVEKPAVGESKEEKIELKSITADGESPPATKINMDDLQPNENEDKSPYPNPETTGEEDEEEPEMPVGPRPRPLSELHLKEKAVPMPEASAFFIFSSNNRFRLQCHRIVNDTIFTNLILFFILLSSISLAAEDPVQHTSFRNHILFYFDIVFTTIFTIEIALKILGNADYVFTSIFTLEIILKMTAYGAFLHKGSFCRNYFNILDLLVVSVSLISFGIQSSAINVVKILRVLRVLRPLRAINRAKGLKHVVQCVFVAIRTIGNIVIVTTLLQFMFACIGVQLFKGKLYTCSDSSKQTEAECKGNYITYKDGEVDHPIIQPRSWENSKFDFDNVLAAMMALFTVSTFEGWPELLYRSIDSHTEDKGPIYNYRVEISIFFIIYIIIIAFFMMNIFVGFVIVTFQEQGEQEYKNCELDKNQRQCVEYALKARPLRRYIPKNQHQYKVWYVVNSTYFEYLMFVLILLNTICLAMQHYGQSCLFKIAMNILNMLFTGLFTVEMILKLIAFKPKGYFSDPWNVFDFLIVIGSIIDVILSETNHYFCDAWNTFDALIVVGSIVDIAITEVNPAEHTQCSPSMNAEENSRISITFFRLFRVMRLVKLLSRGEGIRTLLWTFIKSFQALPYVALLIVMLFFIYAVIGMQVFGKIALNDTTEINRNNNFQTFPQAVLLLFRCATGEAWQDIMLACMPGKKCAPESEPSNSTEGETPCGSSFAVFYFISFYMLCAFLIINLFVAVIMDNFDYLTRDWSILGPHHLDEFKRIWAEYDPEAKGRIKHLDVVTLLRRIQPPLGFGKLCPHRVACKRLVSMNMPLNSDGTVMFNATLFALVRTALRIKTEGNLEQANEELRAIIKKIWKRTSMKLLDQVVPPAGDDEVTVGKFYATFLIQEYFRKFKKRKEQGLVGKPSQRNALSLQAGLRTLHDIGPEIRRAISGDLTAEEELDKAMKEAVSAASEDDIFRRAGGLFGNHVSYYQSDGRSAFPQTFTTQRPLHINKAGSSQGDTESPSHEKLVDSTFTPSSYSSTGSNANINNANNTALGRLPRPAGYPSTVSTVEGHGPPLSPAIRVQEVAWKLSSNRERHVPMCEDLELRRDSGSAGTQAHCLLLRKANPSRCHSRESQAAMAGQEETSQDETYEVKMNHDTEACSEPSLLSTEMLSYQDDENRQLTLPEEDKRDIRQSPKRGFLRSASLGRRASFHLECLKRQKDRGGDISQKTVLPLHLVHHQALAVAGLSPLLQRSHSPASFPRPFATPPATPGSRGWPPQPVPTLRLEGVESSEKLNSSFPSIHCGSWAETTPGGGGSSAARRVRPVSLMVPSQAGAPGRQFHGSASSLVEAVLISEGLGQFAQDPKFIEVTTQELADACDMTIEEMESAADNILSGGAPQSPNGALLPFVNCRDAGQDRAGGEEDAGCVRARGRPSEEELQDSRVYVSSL
Sequence of Voltage-gated L-type calcium channel (CAV1.2) (Q08289 whole entry partner): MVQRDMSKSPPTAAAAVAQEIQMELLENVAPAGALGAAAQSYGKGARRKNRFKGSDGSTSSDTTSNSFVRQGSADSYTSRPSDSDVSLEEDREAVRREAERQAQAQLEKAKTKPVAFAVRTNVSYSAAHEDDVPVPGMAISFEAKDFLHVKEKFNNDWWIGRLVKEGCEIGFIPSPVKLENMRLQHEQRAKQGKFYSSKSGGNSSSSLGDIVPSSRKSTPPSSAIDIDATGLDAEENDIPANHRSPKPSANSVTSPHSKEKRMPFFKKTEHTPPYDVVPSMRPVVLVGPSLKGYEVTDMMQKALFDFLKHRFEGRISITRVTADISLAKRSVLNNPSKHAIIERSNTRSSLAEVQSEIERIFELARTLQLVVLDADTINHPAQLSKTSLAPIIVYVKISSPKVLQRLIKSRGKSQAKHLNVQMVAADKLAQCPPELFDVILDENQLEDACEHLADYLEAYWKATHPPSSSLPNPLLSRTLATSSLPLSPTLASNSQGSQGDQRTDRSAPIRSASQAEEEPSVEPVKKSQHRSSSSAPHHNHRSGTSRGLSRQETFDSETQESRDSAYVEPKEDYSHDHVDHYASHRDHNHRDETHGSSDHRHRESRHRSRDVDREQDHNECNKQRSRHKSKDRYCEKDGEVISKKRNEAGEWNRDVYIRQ
Sequence of Voltage-gated L-type calcium channel (CAV1.2) (P54289 25-946 partner limits assumed): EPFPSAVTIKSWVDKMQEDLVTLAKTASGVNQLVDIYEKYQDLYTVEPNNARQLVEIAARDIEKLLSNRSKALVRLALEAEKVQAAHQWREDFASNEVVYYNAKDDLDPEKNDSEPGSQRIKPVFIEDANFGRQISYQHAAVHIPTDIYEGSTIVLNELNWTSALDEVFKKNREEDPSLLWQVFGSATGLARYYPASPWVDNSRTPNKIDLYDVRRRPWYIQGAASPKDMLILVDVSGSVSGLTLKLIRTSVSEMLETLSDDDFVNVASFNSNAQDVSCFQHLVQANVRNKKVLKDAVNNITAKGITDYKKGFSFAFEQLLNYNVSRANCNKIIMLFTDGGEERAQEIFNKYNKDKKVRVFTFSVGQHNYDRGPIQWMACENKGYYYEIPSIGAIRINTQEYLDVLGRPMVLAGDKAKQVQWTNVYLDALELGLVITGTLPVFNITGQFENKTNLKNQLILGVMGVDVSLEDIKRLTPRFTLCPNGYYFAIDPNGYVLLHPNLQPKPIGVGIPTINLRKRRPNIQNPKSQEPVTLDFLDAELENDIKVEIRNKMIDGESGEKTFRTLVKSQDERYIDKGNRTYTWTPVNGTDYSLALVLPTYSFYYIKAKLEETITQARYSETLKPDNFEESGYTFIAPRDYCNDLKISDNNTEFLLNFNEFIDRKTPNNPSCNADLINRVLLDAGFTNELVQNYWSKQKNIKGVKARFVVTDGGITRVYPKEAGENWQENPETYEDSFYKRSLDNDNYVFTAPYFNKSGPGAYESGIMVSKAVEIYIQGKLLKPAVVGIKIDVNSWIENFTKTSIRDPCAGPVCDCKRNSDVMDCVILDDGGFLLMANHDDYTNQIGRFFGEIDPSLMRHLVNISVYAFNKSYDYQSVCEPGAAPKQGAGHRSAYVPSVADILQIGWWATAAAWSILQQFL
Sequence of Voltage-gated L-type calcium channel (CAV1.2) (P54289 947-1103 partner limits assumed): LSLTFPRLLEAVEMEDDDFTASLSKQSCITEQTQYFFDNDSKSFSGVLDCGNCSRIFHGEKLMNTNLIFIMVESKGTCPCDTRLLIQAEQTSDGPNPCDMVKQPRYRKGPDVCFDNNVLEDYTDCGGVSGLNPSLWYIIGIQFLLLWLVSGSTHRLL

`C=CCC1CCC[C@@H](CCC(=O)O)C1=C` (some centres unmarked) [Compound 13] was tested, and the Emax ([1]; Agonist mode) was 0.13%, the Emax ([1]; Antagonist mode) was 8.81% and the “mean length of the neurite” value [2] was 350 micrometer. For the same compound, the “neurotropic effect versus control medium” value [2] was “four folds neurotropic effect”, the “total (SUM) neurite length” value [2] was 600 micrometer and the Emax [3] was 3.22%. For the same compound, the “neurite outgrowth, neurotropic effect (in words)” value ([4]; HU-MCA-13 5 μM, 5 days) was “strong neurite outgrowth, neurotropic effect like NGF”, the “maturity of neurites (cytoskeletal-tubulin protein staining)” value ([4]; HU-MCA-13 compared with NGF-treated ganglia) was “less mature than in NGF-treated ganglia” and the “Neurotropic effect (mean ± SE) Seven Days Df” value ([5]; PC12 cells, seven days of treatment, Df = fractal dimension of neurite outgrowth) was 0.45 ± 0.01. The “Neurotropic effect (mean ± SE) Two Days Df” value ([5]; PC12 cells, two days of treatment, Df = fractal dimension of neurite outgrowth) was 0.39 ± 0.01, the “Neurotropic effect Seven Days NGF (%)” value ([5]; seven days, relative to NGF 50 ng/ml) was 97.8% and the “Neurotropic effect Two Days NGF (%)” value ([5]; two days, relative to NGF 50 ng/ml) was 84.8%. The “neurotropic activity (in words)” value ([5]; after seven days of treatment) was “significant neurotropic activity”, the “inducing fast neurite outgrowth (in words)” value ([5]; after two days of treatment) was “most active” and the Emax [6] was 3.82%. The Emax ([7]; Agonist mode) was 0% and the Emax ([7]; Antagonist mode) was 0.13%.

Source: US20200239398A1, “METHYLENE-CYCLOALKYLACETATE DERIVATIVES AND THEIR USE IN TREATMENT OF NEUROTROPIC CONDITIONS” (Yissum Research Development Company of The Hebrew …, priority 2018, published 2020)
